US20260028319A1, “INTERMEDIATE SALT FOR THE PREPARATION OF BIS(FLUOROALKYL) BENZODIAZEPINONE COMPOUNDS” (Immunome, Inc., priority 2022, published 2026)

Assays:
Format in all cases: physicochemical
[1] = (I-1) and (1) stability study, assay by HPLC; settings: for Stability, in words: free acid versus CHA salt; for Assay (by HPLC), Initial Results: before storage
Procedure: (§1) Assay and water content of the oily free acid (I-1) were tested following a 6-month period in 25° C./60% RH (relative humidity) and 40° C./75% RH (Table 2a).
Similarly, the corresponding CHA salt (1), which is a powder, was tested for its purity/assay:
It could be stipulated that increased water amount over time in the free acid gives rise to the observed assay which deteriorates as the test progresses.

[2] = (I-1) and (1) stability study, water content by KF; settings: for Water content (by KF) following storage: 6 months; for Water content (by KF), Initial Results: before storage
Procedure: as §1

[3] = Stability of Na, CHA and tBuNH2 salts of (I-1), GC/MS assay
Procedure: Na and tBuNH2 salts of (I-1) were prepared. Stability of the salts was tested and compared to the stability of the CHA salt ((1)).
Table 3 also emphasizes that specific salts of (I-1) provide high purity over time. However, it cannot be said that any possible salt (any possible cation) of (I-1) will give rise to such high stability over time.

| SMILES | Assay by HPLC ([1]; 1 month, 2-8° C.) [% w/w] | Assay by HPLC ([1]; 1 month, 25° C./60% RH) [% w/w] | Assay by HPLC ([1]; 1 month, 40° C./75% RH) [% w/w] | Assay by HPLC ([1]; 3 months, 2-8° C.) [% w/w] | Assay by HPLC ([1]; 3 months, 25° C./60% RH) [% w/w] | Assay by HPLC ([1]; 3 months, 40° C./75% RH) [% w/w] | Assay by HPLC ([1]; 6 months, 2-8° C.) [% w/w] | Assay (by HPLC) following storage ([1]; 6 months, 25° C./60% RH) [% w/w] | Assay (by HPLC) following storage ([1]; 6 months, 40° C./75% RH) [% w/w] | Stability, in words [1] | Assay (by HPLC), Initial Results [1] [% w/w] | Water content (by KF) following storage ([2]; 25° C./60% RH) [%] | Water content (by KF) following storage ([2]; 40° C./75% RH) [%] | Water content (by KF), Initial Results [2] [%] | Purity (GC/MS assay) At 2-8° C. for 1 week ([3]; 2-8° C., 1 week) [% w/w] | Purity (GC/MS assay) At 45° C. for 1 week ([3]; 45° C., 1 week) [% w/w] | Stability among salts of (I-1), in words ([3]; Na, CHA and tBuNH2 salts compared) | Stability, in words ([1]; listed as free acid compound) |
| --- | --- | --- | --- | --- | --- | --- | --- | --- | --- | --- | --- | --- | --- | --- | --- | --- | --- | --- |
| CC(C)(C)OC(=O)C[C@@H](CCC(F)(F)F)C(=O)O [(1)] | 96.2 | 94.8 | 94.3 | 95.1 | 94.5 | 93.0 | 94.6 | 95.1 | 94.4 | much more stable | 95.0 | 0.3 | 0.3 | 0.2 | 95.8 | 98.2 | most stable salt |  |
| CC(C)(C)OC(=O)C[C@@H](CCC(F)(F)F)C(=O)O [(I-1), (2R)-2-(2-tert-Butoxy-2-oxoethyl)-5,5,5-trifluoropentanoic acid, reference compound] |  |  |  |  |  |  |  | 92.8 | 84.5 |  | 93.5 | 2.0 | 2.3 | 0.8 |  |  |  | unstable |
